Data reported in patent publication US20030054389A1, “Methods for identifying agents that induce a cellular phenotype, and compositions thereof” (priority 2001, published 2003).

Tests used:
[1] = test system: HT29 cells; assay: Induction of apoptosis in HT29 cells carrying pVT324; type: cell-based, human; conditions: after 48 hours of treatment
Method: Cells that are positive for PI uptake may either be necrotic, or be in the late stages of apoptosis. In order to address specifically the question of whether DNA recovered from cells undergoing apoptosis can serve as a good template for PCR, the following experiment was performed. HT29 cells containing a retroviral construct that constitutively expresses GFP (pVT324) were treated with sulindac sulfide to induce apoptosis. […] Apoptotic cells were counted into PCR tubes and PCR was carried out using primers specific for the amplification of the retroviral GFP construct. Live cells from an untreated culture were used as PCR controls. There was no apparent difference in amplification of the GFP product from apoptotic cells when compared to live cells (FIG. 11). Thus DNA recovered from cells undergoing either necrotic or apoptotic cell death can serve as an effective template for PCR amplification and construction of sublibraries.

[2] = test system: WM35 cells; assay: Nuclear condensation / ethidium homodimer and Syto16 staining, WM35; type: cell-based
Method: (§1) Two cell lines, WM35 and HS294T, were plated out (50,000 cells per well, 24 well plate) and allowed to adhere. After 24 hours, the cells were treated for 4 hours with varying concentrations (5-80 μM) of Cisplatin (cis-platinum (II) diammine dichloride), a well-known chemotherapeutic agent that induces apoptosis. […] Adherent cell populations were then lifted from the solid support by trypsinization, centrifuged (400× g), and resuspended in PBS (0.125 ml). To observe the nuclear morphology and percent cell death in the WM35 and HS294T cell lines, cells from both floater and adherent populations were stained concurrently with Syto16 and ethidium homodimer (125 ul of cell suspension+2.5 ul 62.5uM Sytol6+[…] 10 ug/ml ethidium homodimer, 10 minutes at 37° C.). Ethidium homodimer is a membrane impermeant compound that fluoresces in the 617 nm range when it is intercalated with chromosomal DNA. Thus, in a mixed cell population containing both living and dead/dying cells, only those cells whose membranes have been compromised will stain with ethidium homodimer. In contrast, Syto 16 (Molecular Probes) is a membrane permeant dye that fluoresces in the 518 nm range when associated with chromosomal DNA. Together, these two dyes can be used to observe and distinguish the nuclear morphology in a population containing both living and dead/dying cells.

[3] = test system: HS294T cells; assay: Nuclear condensation / ethidium homodimer and Syto16 staining, HS294T; type: cell-based
Method: as §1

[4] = test system: WM35 (melanoma) cells; assay: Caspase-3 fluorescent substrate (Rhodamine 123-YVAD) and PI staining of WM35 floaters; type: cell-based; conditions: Cisplatin 15 μg/ml, floaters collected 18-24 hours after induction
Method: WM35 cells were passed one day prior to induction of apoptosis and incubated for 24 hrs to allow the cells to attach to the substrate. The media was subsequently removed, the remaining adherent cells washed 1× with PBS, and subsequently exposed to Cisplatin (15 μg/ml) in fresh media. Eighteen to twenty-four hours after the induction of apoptosis, the floater cell population was collected, pelleted by centrifugation (400× g), and resuspended at 3×10^6 cells/ml in PBS. Samples were then split into four groups: (I) uninduced minus Rhodamine 123-YVAD (substrate), (2) uninduced plus substrate, (3) induced minus substrate, and (4) induced plus substrate. For samples exposed to Rhodamine 123-YVAD substrate, 50 ul of a pre-warmed (37° C.) cell suspension was combined with 25 ul of a stock substrate solution (Celiprobe). Samples were incubated for 60 minutes at 37° C. and then placed on ice prior to FACS analysis. In addition to caspase-3 staining, a replicate of each sample was stained with propidium iodide to determine the percentage of cells within the population whose membranes had been compromised and the overlap between PI and caspase-3 staining. […] Emission spectra were read at 515-535 nm wavelength using the FLI (PMT2) 525 nm blue filter.

[5] = test system: HuVEC 9F0293 cells; assay: Time course of detachment and PI staining of HuVEC 9F0293; type: cell-based, Human; conditions: puromycin 2 ug/ml
Method: To determine the time course in which dead and/or dying HuVECs detach from the solid support in response to a cytotoxic agent, 9F0293 cells were plated and subsequently treated with puromycin (2 ug/ml). Both floater and adherent cell populations were then collected at varying times (t=4, 7, 9, 16, 20, and 24 hours) and analyzed to determine (a) the percent PI^+ cells in the floater population and (b) the fraction of cells which became floaters. […] The fraction of floaters that stained with PI (PI^+ population) increased with time.

[6] = test system: T47D cells; assay: Camptothecin kill curve in T47D cells; type: cell-based
Method: Approximately 250,000 cells were seeded into each well of a six well plate. Cells were then grown in media containing camptothecin of varying concentrations (0-10 uM). After 5 days, the number of cells remaining in each of the camptothecin-treated wells was compared with untreated controls. From these experiments, it was determined that camptothecin concentrations ranging from 1-4 nM had no effect on T47D cell number over the course of the 5 days of treatment. […] In order to determine whether this level of treatment is concomitantly increasing the number of floaters in the population, several flasks are seeded with T47D cells and then treated with 1-4 nM concentrations of camptothecin. After a period of three to five days, the media is collected and the number of floater cells are counted and compared to the total number of cells in the flask (floaters+adherents).

[7] = test system: ECR293 cells containing pBIGFII and ecdysone receptor (pVgRXR); assay: Ecdysone-inducible pBIGFII vector fluorescence in ECR293 cells; type: cell-based; conditions: 5 μM ponesterone A
Source text: As an alternative to the constitutive pCLMFG vector, an inducible construct that can be regulated by ecdysone was constructed as follows. The PmlI/XhoI fragment from pVT324 was inserted into the MCS of the PIND vector (Invitrogen). This product was then digested with BglII, blunt-ended and inserted into a pBabe-K-ras vector (pVT313-based) that had been digested with BamHI/XhoI and blunted (Klenow Fragment). The resulting vector was designated pBabe-Forward-1. The XbaI fragment of pVT324 was then inserted into the compatible site of pBabe-Forward-1. The resulting vector was designated pBIGFII. Vector pBIGFII was subsequently transfected into cells (ECR293, Invitrogen) that contain an endogenous copy of the ecdysone receptor (pVgRXR).

[8] = test system: HMEC 96C cells; assay: Floater assay with propidium iodide viability, HMEC 96C; type: cell-based, human; conditions: for Propidium Iodide Staining / Percent Floaters: HMEC 96C
Method: (§2) A floater assay involving primary human mammary cells (HMECs), immortalized and transformed with a minimum number of genetic elements, was performed as follows. Primary pooled HMECs (Biowhittaker/Clonetics) were immortalized and transformed with two methods: 1) Serial introduction and expression of retroviral constructs encoding SV-40 Lg T Ag, human telomerase catalytic subunit hTERT, and activated V12H-ras (method of Hahn, et al, Nature 400: 464-468, 1999) and 2) serial introduction and expression of constructs encoding HPV-16 E6/E7, hTERT and V12H-ras. The lines are designated 96C and 96A, respectively. The retroviral constructs BABE/neomycin/SV-40 Lg T Ag BABE/LNCX/puromycin/hTERT, LXSN/hygromycin/V-12H-Ras and LXSN/neomycin/HPV-16 E6/E7 were utilized.
(§3) To determine background floater rates, cells were plated to 20% confluency in three 100 mm dishes (100000 cells/dish) and the number of floaters as a percentage of total cells (adherent+floaters) and the viability of floaters ascertained at two, three and four days post-platin . Viability was assessed by measuring propidium iodide uptake. In addition to untreated controls, a transduction control vector pVT 340 (pCLMFG/GFP) and a positive control BID/MFG vector, a pro-apoptotic protein previously identified in a colorectal carcinoma HT29 negative selection, were utilized. Cells were transduced with 30% (v/v) viral supernatants at 95% and 45% rates, respectively.

[9] = test system: HMEC 96A cells; assay: Floater assay with propidium iodide viability, HMEC 96A; type: cell-based, human; conditions: for Propidium Iodide Staining / Percent Floaters: HMEC 96A
Method: as §2, §3

CSc1ccc(/C=C2/C(C)=C(CC(=O)O)c3cc(F)ccc32)cc1 [sulindac sulfide]
cell detachment and apoptotic morphology [1]: the majority of the cells had detached from the dish and showed typical apoptotic morphology

N.N.[Cl-].[Cl-].[Pt+2] [Cisplatin, cis-platinum (II) diammine dichloride]
ethidium homodimer staining of adherent cell population ([2]; WM35 adherent cells, Cisplatin experiment): < 10%
floater cells stained with ethidium homodimer ([2]; WM35 floaters, Cisplatin treated): 45-50%
condensed or fragmented nuclei ([2]; WM35 floaters, higher concentrations of Cisplatin): 40-50%
ethidium homodimer staining of adherent cell population ([3]; HS294T adherent cells, Cisplatin experiment): < 10%
cells showing condensed or fragmented nuclei ([3]; HS294T floaters stained with ethidium homodimer, Cisplatin treated): < 20%
floater cells stained with ethidium homodimer ([3]; HS294T floaters, Cisplatin 5-80 μM 4 hours, collected 18-24 hrs later): greater than 50%
caspase-3 positive cells among PI-minus floater cells [4]: 94.6%

COc1ccc(C[C@H](N)C(=O)N[C@H]2[C@@H](O)[C@H](n3cnc4c(N(C)C)ncnc43)O[C@@H]2CO)cc1 [puromycin]
time course of detachment [5]: the majority of HuVECs detached by the 16-hour time point
floater cells in the PI+ gate ([5]; by 20 hours): nearly all
cells that became floaters ([5]; within 24 hours): 90-99%
PI− versus PI+ floater cells ([5]; 4, 7, and 9 hours): near equal numbers

CC[C@@]1(O)C(=O)OCc2c1cc1n(c2=O)Cc2cc3ccccc3nc2-1 [camptothecin]
cell number relative to untreated control ([6]; 10 nM camptothecin, 5 days): roughly one third that found in the untreated control
concentration tolerated without adverse effect on cell viability or division ([6]; 5 days): up to 4 nM
concentrations at which virtually no cells remained adhered to the plate ([6]; 5 days): greater than 50 nM
concentrations resulting in a decrease in cell number relative to untreated control ([6]; 5 days): greater than 4 nM
concentrations with no effect on T47D cell number ([6]; 5 days of treatment): 1 to 4 nM

CC(C)CC[C@@H](O)[C@](C)(O)[C@H]1CC[C@@]2(O)C3=CC(=O)[C@@H]4C[C@@H](O)[C@@H](O)C[C@]4(C)[C@H]3CC[C@]12C [ponesterone A]
increase of fluorescence level versus absence of inducer [7]: increases by approximately thirty fold

B1: BID: positive control BID/MFG vector, a pro-apoptotic protein previously identified in a colorectal carcinoma HT29 negative selection (protein, UniProt P55957 1-195, looked up)
BH3-interacting domain death …: MDCEVNNGSSLRDECITNLLVFGFLQSCSDNSFRRELDALGHELPVLAPQWEGYDELQTDGNRSSHSRLGRIEADSESQEDIIRNIARHLAQVGDSMDRSIPPGLVNGLALQLRNTSRSEEDRNRDLATALEQLLQAYPRDMEKEKTMLVLALLLAKKVASHTPSLLRDVFHTTVNFINQNLRTYVRSLARNGMD
modifications: expressed from MFG retroviral vector
notes: positive control BID/MFG vector, a pro-apoptotic protein previously identified in a colorectal carcinoma HT29 negative selection
Propidium Iodide Staining ([8]; Adherent, DAY 3): 8.5%
Propidium Iodide Staining ([8]; Adherent, DAY 4): 0.5%
Percent Floaters ([8]; DAY 2): 46%
Percent Floaters ([8]; DAY 3): 58%
Percent Floaters ([8]; DAY 4): 7%
Propidium Iodide Staining ([8]; Floaters, DAY 3): 81%
Propidium Iodide Staining ([8]; Floaters, DAY 4): 70%
propidium iodide positive (adherents) ([8]; line 96C, days 3 and 4): 0.5-8.5%
propidium iodide positive in floaters ([8]; line 96C, days 3 and 4): 70-81%
Propidium Iodide Staining ([9]; Adherent, DAY 3): 1.6%
Propidium Iodide Staining ([9]; Adherent, DAY 4): 0.4%
Percent Floaters ([9]; DAY 2): 54%
Percent Floaters ([9]; DAY 3): 25%
Percent Floaters ([9]; DAY 4): 8%
Propidium Iodide Staining ([9]; Floaters, DAY 3): 72%
Propidium Iodide Staining ([9]; Floaters, DAY 4): 45%
propidium iodide positive in adherents ([9]; line 96A, days 3 and 4): 0.4-1.6%
propidium iodide positive in floaters ([9]; line 96A, days 3 and 4): 45-75%
